ChEMBL document CHEMBL1158108, “C35 terpenoids from the bark of Calocedrus macrolepis var. formosana with activity against human cancer cell lines” (J Nat Prod, 2006)
pIC50: −log10 of the molar value.

Test system: KB
Test: Cytotoxicity against human KB cells after 72 hrs
Assay type: functional, cell-based

SMILES: COc1cc([C@@H]2c3cc4c(cc3[C@@H](O[C@@H]3O[C@@H]5CO[C@@H](C)O[C@H]5[C@H](O)[C@H]3O)[C@H]3COC(=O)[C@H]23)OCO4)cc(OC)c1O [ETOPOSIDE]
- pIC50: 5.70

SMILES: CC(C)c1cc2c(cc1O)[C@@]1(C)CCCC(C)(C)[C@@H]1C[C@H]2CC1=C[C@@H]2[C@@H](CC1)[C@](C)(O)CC[C@H]2C(C)C [FERRUGICADINOL]
- pIC50: 4.85

SMILES: C=C1CC[C@@H]([C@H]2C[C@H]3C(C)(C)CCC[C@]3(C)c3cc(O)c(C(C)C)cc32)[C@]2(C)CC[C@@H](C(C)(C)O)C[C@@H]12 [FERRUGIEUDESMOL]
- pIC50: 4.94
